{"source": "patent US20230338378A1", "about": "“Methods of Administering Myosin Inhibitors” (MYOKARDIA, INC., priority 2022, published 2023)", "key": {"[1]": {"biological_target": "CYP3A4 (Homo sapiens, UniProt P08684)", "sequence (P08684 whole entry)": "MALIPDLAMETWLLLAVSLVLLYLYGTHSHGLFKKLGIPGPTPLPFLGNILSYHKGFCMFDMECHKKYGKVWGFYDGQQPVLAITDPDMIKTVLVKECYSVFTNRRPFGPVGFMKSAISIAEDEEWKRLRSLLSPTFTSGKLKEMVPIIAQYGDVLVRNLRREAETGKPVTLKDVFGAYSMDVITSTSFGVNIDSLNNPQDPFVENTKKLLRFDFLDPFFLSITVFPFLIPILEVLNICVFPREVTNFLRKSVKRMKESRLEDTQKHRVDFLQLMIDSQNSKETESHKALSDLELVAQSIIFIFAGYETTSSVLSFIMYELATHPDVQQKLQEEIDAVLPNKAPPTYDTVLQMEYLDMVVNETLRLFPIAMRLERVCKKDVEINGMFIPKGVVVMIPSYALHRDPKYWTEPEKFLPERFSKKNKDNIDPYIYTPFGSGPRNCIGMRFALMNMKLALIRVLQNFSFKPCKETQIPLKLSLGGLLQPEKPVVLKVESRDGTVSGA", "experiment": "Metabolism through CYP enzymes"}, "[2]": {"biological_target": "CYP2C8 (Homo sapiens, UniProt P10632)", "sequence (P10632 whole entry)": "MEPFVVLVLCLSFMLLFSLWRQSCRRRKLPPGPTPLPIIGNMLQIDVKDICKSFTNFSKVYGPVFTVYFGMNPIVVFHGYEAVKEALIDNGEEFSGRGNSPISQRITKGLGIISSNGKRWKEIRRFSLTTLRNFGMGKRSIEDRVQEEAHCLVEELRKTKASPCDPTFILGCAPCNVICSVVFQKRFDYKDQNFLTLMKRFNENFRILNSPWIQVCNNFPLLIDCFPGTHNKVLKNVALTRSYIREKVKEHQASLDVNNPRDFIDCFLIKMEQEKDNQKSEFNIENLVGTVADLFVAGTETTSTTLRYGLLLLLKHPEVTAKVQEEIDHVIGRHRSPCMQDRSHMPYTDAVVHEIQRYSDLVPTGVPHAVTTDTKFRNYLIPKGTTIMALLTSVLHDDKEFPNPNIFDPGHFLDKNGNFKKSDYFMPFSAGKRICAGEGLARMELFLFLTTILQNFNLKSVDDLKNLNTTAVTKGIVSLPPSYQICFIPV", "experiment": "In vitro CYP inhibition", "format": "in vitro ADME", "conditions": "In Vitro Studies"}, "[3]": {"system": "CYP2B6", "experiment": "In vitro CYP induction", "format": "in vitro ADME", "conditions": "In Vitro Studies"}, "[4]": {"biological_target": "BSEP (Homo sapiens, UniProt O95342)", "sequence (O95342 whole entry)": "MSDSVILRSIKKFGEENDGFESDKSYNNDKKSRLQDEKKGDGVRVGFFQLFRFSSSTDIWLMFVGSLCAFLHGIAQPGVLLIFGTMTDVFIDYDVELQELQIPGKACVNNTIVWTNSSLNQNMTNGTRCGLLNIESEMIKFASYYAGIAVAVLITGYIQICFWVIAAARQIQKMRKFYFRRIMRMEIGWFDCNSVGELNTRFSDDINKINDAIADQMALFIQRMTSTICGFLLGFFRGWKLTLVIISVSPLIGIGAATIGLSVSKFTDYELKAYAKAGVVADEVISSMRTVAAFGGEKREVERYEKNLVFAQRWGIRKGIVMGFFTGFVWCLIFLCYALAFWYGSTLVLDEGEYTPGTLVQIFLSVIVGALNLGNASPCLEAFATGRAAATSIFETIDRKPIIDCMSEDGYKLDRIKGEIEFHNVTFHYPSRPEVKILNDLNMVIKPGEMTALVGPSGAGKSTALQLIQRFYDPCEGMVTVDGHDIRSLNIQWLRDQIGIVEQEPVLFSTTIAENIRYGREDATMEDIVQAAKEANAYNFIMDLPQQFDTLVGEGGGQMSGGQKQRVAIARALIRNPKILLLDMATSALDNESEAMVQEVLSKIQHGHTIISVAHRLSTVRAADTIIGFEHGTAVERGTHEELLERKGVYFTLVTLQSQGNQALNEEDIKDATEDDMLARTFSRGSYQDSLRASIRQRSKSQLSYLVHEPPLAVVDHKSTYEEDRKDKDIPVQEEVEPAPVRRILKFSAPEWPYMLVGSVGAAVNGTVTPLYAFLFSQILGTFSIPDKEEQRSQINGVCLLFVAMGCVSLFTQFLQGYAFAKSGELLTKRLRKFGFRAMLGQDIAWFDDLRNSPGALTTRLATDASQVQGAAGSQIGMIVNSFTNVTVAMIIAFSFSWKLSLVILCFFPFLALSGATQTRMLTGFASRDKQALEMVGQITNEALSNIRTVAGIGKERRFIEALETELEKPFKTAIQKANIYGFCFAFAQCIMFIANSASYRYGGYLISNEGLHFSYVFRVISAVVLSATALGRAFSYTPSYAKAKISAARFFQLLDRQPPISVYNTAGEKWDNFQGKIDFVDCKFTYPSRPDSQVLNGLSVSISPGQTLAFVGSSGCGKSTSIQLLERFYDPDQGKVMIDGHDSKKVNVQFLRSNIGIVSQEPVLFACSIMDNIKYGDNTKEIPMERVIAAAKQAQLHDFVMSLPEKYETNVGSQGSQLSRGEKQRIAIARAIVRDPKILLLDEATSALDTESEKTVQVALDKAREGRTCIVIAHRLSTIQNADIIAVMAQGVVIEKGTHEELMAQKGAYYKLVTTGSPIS", "experiment": "In vitro transporter inhibition", "format": "in vitro ADME", "conditions": "In Vitro Studies"}, "[5]": {"system": "pregnant rats", "experiment": "Embryo-fetal development study in pregnant rats", "format": "in vivo, rat", "description": "Plasma exposure (based on area under the concentration-time curve or AUC) at the no-effect dose for embryo-fetal development in rats is 0.3 times the exposure in humans at the MRHD."}, "[6]": {"system": "HCM patients", "experiment": "Meta-analysis of QTc across clinical studies in HCM patients", "format": "in vivo, human", "conditions": "therapeutic exposure range", "description": "The effect of coadministration of MAVACAMTEN with QT-prolonging drugs or in patients with potassium channel variants resulting in a long QT interval have not been characterized."}, "[7]": {"system": "CYP2C19, CYP3A4", "experiment": "Established and Potentially Significant Pharmacokinetic Drug Interactions with MAVACAMTEN (Table 1)", "conditions": "Concomitant use with a moderate to strong CYP2C19 inducer or a moderate to strong CYP3A4 inducer"}}}
{"compound": "CC(C)n1c(=O)cc(N[C@@H](C)c2ccccc2)[nH]c1=O", "note": "[mavacamten, (S)-3-Isopropyl-6-((1-phenylethyl)amino)pyrimidine-2,4(1H,3H)-dione]", "values": [{"measurement": "metabolized through CYP3A4", "setting": "[1]", "value": 18, "unit": "%"}, {"measurement": "inhibition of CYP2C8", "setting": "[2]", "value": "does not inhibit"}, {"measurement": "induction of CYP2B6", "setting": "[3]", "value": "inducer"}, {"measurement": "inhibition of BSEP", "setting": "[4]", "value": "does not inhibit"}, {"measurement": "embryo-fetal findings", "setting": "[5]; pregnant rats, oral, period of organogenesis, high dose group (1.5 mg/kg/day)", "value": "increases in post-implantation loss, decreases in mean fetal body weight, reductions in fetal ossification of bones, and fetal malformations (visceral and skeletal) were observed"}, {"measurement": "Plasma exposure (AUC) at the no-effect dose for embryo-fetal development vs exposure in humans at the MRHD", "setting": "[5]; rats", "value": 0.3, "unit": "times"}, {"measurement": "QTc interval", "setting": "[6]", "value": "does not suggest clinically relevant increases in the QTc interval"}, {"measurement": "Clinical Impact on mavacamten exposure", "setting": "[7]", "value": "moderate to strong CYP3A4 inducer decreases mavacamten exposure,"}]}
